Reference: patent US11944614B2, “Imidazo[4,5-c]pyridine compounds as LSD-1 inhibitors” (THE REGENTS OF THE UNIVERSITY OF MICHIGAN, priority 2018, dated 2024)
pIC50: −log10 of the molar value.

Target: Human recombinant LSD1 protein (Homo sapiens (Human), UniProt O60341)
Assay: LSD1 enzymatic activity, AlphaLISA demethylation assay
Assay type: biochemical
Details: 4 nM LSD1, 80 nM Biotin-H3K4Me peptide substrate, 1% DMSO, 60 minutes reaction
Protocol: Human recombinant LSD1 protein expressed in E. coli cells was purchased from Active Motif (Carlsbad, Calif.). Biotin-labeled Histone H3K4Me peptide (residues 1-21 with Lys 4 monomethylated) substrate was purchased from Anaspec (Fremont, Calif.). Enzymatic activity was assessed using the AlphaLISA technology from Perkin Elmer Life Sciences (Waltham, Mass.). 2.5 μL of compound solution and 5 μL of LSD1 solutions in the assay buffer (50 mM Tris, pH 9.0, 50 mM NaCl with 0.01% Tween20 and 1 mM DTT added right before the assay) were added into a white low volume 384 well microtiter plate. This mixture solution was incubated for 15 minutes with gentle shaking at room temperature. Demethylation reaction was initiated by adding 2.5 μL of Biotin-H3K4Me peptide substrate solution in the assay buffer. Final concentrations of LSD1, Biotin-H3K4Me peptide substrate, and DMSO were 4 nM, 80 nM, and 1%, respectively. The reaction was allowed to proceed for 60 minutes in dark with gentle shaking at room temperature, after which 5 μL of Anti-H3K4 AlphaLISA acceptor beads in detection buffer from the manufacturer was added into the reaction mixture followed by incubation for 60 minutes. 10 μL of Streptavidin labeled AlphaLISA donor beads in detection buffer was added into the mixture followed by 30-minute incubation. Final acceptor and donor beads concentrations were both at 10 μg/mL. Plates were read on a BMG CLARIOStar multimode plate reader from BMG Labtech (Ortenberg, Germany) with an excitation wavelength of 680 nm and emission wavelength of 615 nm. IC50 values of inhibitors were obtained by fitting the fluorescence intensity vs inhibitor concentrations in a sigmoidal dose-response curve (variable slope) with a non-linear regression using Prism 7 (La Jolla, Calif.).

SMILES	pIC50
CN1CCOc2cc(-c3ncc4c(ncn4CC4CCNCC4)c3-c3ccc(C#N)c(F)c3)ccc21 [compound 25, 2-fluoro-4-(6-(4-methyl-3,4-dihydro-2H-benzo[b][1,4]oxazin-7-yl)-3-(piperidin-4-ylmethyl)-3H-imidazo[4,5-c]pyridin-7-yl)benzonitrile]	8.10
Cn1ncc2cc(-c3ncc4c(ncn4C[C@H]4CCNC4)c3-c3ccc(C#N)cc3)ccc21 [compound 30, (S)-4-(6-(1-methyl-1H-indazol-5-yl)-3-(pyrrolidin-3-ylmethyl)-3H-imidazo[4,5-c]pyridin-7-yl)benzonitrile]	7.40
Cn1ncc2cc(-c3ncc4c(ncn4CC4CCCNCC4)c3-c3ccc(C#N)cc3)ccc21 (centres unmarked) [compound 22, 4-(3-(azepan-4-ylmethyl)-6-(1-methyl-1H-indazol-5-yl)-3H-imidazo[4,5-c]pyridin-7-yl)benzonitrile]	7.79

The next lines start with the values.

pIC50	SMILES
6.43	CCn1ncc2cc(-c3ncc4c(ncn4CC4CCN(C)CC4)c3-c3ccc(C#N)c(F)c3)ccc21 [compound 4, 4-(6-(1-ethyl-1H-indazol-5-yl)-3-((1-methylpiperidin-4-yl)methyl)-3H-imidazo[4,5-c]pyridin-7-yl)-2-fluorobenzonitrile]
7.53	CN1CCC(Cn2cnc3c(-c4ccc(C#N)cc4)c(-c4ccc5c(c4)OCCN5C)ncc32)C1 (centres unmarked) [compound 33, 4-(6-(4-methyl-3,4-dihydro-2H-benzo[b][1,4]oxazin-7-yl)-3-((1-methylpyrrolidin-3-yl)methyl)-3H-imidazo[4,5-c]pyridin-7-yl)benzonitrile]
